Data taken from ChEMBL document CHEMBL1201862, “PubChem BioAssay data set” (2004).
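Dose response: 5 concentrations. Exposure: 48 h. Format: 96-well plates. Endpoint: linear interpolation; highest concentration if not reached. GI50 is the concentration that inhibits growth by half.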 The source made the active and inactive calls. Rule as the data show it: active = GI50 up to about 1.1 µM and inactive = higher.

What was measured:
Experiment in all cases: inhibition of tumour cell growth, NCI panel, 48 h
786-0 = tested on: 786-0
CCRF-CEM = tested on: CCRF-CEM
SF-539 = tested on: SF-539
SR = tested on: SR
SK-MEL-2 = tested on: SK-MEL-2
A549 = tested on: A549
SK-MEL-5 = tested on: SK-MEL-5
U-251 = tested on: U-251
HCT-116 = tested on: HCT-116
HOP-92 = tested on: HOP-92
HT-29 = tested on: HT-29
TK-10 = tested on: TK-10
XF498 = tested on: XF498
SK-OV-3 = tested on: SK-OV-3
NCI-H522 = tested on: NCI-H522
OVCAR-3 = tested on: OVCAR-3
SK-MEL-28 = tested on: SK-MEL-28
HOP-62 = tested on: HOP-62
COLO 205 = tested on: COLO 205
SNB-75 = tested on: SNB-75
KM12 = tested on: KM12
K562 = tested on: K562
SNB-78 = tested on: SNB-78
NCI-H460 = tested on: NCI-H460
NCI-H226 = tested on: NCI-H226
SF-268 = tested on: SF-268
CAKI-1 = tested on: CAKI-1
LOX IMVI = tested on: LOX IMVI
OVCAR-8 = tested on: OVCAR-8
DLD-1 = tested on: DLD-1
IGROV-1 = tested on: IGROV-1
MOLT-4 = tested on: MOLT-4
NCI-H23 = tested on: NCI-H23
M14 = tested on: M14
M19-MEL = tested on: M19-MEL
OVCAR-5 = tested on: OVCAR-5
UO-31 = tested on: UO-31
OVCAR-4 = tested on: OVCAR-4
DMS-273 = tested on: DMS-273
SW-620 = tested on: SW-620
ACHN = tested on: ACHN
EKVX = tested on: EKVX
SNB-19 = tested on: SNB-19
RXF 393 = tested on: RXF 393
DMS-114 = tested on: DMS-114
SN12C = tested on: SN12C
UACC-62 = tested on: UACC-62
SF-295 = tested on: SF-295
HCT-15 = tested on: HCT-15
HL-60 = tested on: HL-60
Malme-3M = tested on: Malme-3M
A498 = tested on: A498
LXFL 529 = tested on: LXFL 529
KM-20L2 = tested on: KM-20L2
UACC-257 = tested on: UACC-257
HCC 2998 = tested on: HCC 2998

In the case of `O=c1c2cccnc2ncn1CCCN1CCCC1`, the GI50 (786-0) was > 100 µM (inactive), the GI50 (CCRF-CEM) was > 100 µM (inactive) and the GI50 (SF-539) was > 100 µM (inactive). The GI50 (SR) was > 100 µM (inactive), the GI50 (SK-MEL-2) was > 100 µM (inactive) and the GI50 (A549) was > 100 µM (inactive). The GI50 (SK-MEL-5) was > 100 µM (inactive), the GI50 (U-251) was > 100 µM (inactive) and the GI50 (HCT-116) was > 100 µM (inactive). For the same molecule, the GI50 (HOP-92) was > 100 µM (inactive), the GI50 (HT-29) was > 100 µM (inactive) and the GI50 (TK-10) was > 100 µM (inactive). For the same molecule, the GI50 (XF498) was > 100 µM (inactive), the GI50 (SK-OV-3) was > 100 µM (inactive) and the GI50 (NCI-H522) was > 100 µM (inactive). For the same molecule, the GI50 (OVCAR-3) was > 100 µM (inactive), the GI50 (SK-MEL-28) was > 10 µM (inactive) and the GI50 (HOP-62) was > 100 µM (inactive). The GI50 (COLO 205) was 97.3 µM (inactive), the GI50 (SNB-75) was > 100 µM (inactive) and the GI50 (KM12) was > 100 µM (inactive). For the same molecule, the GI50 (K562) was > 100 µM (inactive), the GI50 (SNB-78) was > 100 µM (inactive) and the GI50 (NCI-H460) was > 100 µM (inactive). For the same molecule, the GI50 (NCI-H226) was 91 µM (inactive), the GI50 (SF-268) was > 100 µM (inactive) and the GI50 (CAKI-1) was > 100 µM (inactive). The GI50 (LOX IMVI) was > 100 µM (inactive), the GI50 (OVCAR-8) was > 100 µM (inactive) and the GI50 (DLD-1) was > 100 µM (inactive). For the same molecule, the GI50 (IGROV-1) was > 100 µM (inactive), the GI50 (MOLT-4) was > 100 µM (inactive) and the GI50 (NCI-H23) was > 100 µM (inactive). For the same molecule, the GI50 (M14) was > 100 µM (inactive), the GI50 (M19-MEL) was > 100 µM (inactive) and the GI50 (OVCAR-5) was > 100 µM (inactive). The GI50 (UO-31) was > 100 µM (inactive), the GI50 (OVCAR-4) was > 100 µM (inactive) and the GI50 (DMS-273) was > 100 µM (inactive). For the same molecule, the GI50 (SW-620) was > 100 µM (inactive), the GI50 (ACHN) was > 100 µM (inactive) and the GI50 (EKVX) was > 100 µM (inactive). The GI50 (SNB-19) was > 100 µM (inactive), the GI50 (RXF 393) was > 100 µM (inactive) and the GI50 (DMS-114) was 86.1 µM (inactive). For the same molecule, the GI50 (SN12C) was > 100 µM (inactive), the GI50 (UACC-62) was > 100 µM (inactive) and the GI50 (SF-295) was > 100 µM (inactive).

`Nc1ccc2c(c1)C(=O)N(O)C2=O` was tested, and the GI50 (CCRF-CEM) was > 100 µM (inactive), the GI50 (HCT-15) was greater than 100 µM and the GI50 (SF-539) was > 100 µM (inactive). The GI50 (SR) was > 100 µM (inactive), the GI50 (A549) was > 100 µM (inactive) and the GI50 (U-251) was > 100 µM (inactive). The GI50 (HCT-116) was > 100 µM (inactive), the GI50 (HT-29) was > 100 µM (inactive) and the GI50 (TK-10) was > 100 µM (inactive). For the same molecule, the GI50 (XF498) was > 100 µM (inactive), the GI50 (SK-OV-3) was > 100 µM (inactive) and the GI50 (HL-60) was > 100 µM (inactive). The GI50 (OVCAR-3) was > 100 µM (inactive), the GI50 (Malme-3M) was > 100 µM (inactive) and the GI50 (SK-MEL-28) was > 100 µM (inactive). The GI50 (HOP-62) was > 100 µM (inactive), the GI50 (A498) was > 100 µM (inactive) and the GI50 (SNB-75) was > 100 µM (inactive). For the same molecule, the GI50 (KM12) was > 100 µM (inactive), the GI50 (K562) was > 100 µM (inactive) and the GI50 (SNB-78) was > 100 µM (inactive). For the same molecule, the GI50 (NCI-H460) was > 100 µM (inactive), the GI50 (NCI-H226) was > 100 µM (inactive) and the GI50 (SF-268) was > 100 µM (inactive). For the same molecule, the GI50 (LOX IMVI) was > 100 µM (inactive), the GI50 (LXFL 529) was > 100 µM (inactive) and the GI50 (DLD-1) was > 100 µM (inactive). The GI50 (IGROV-1) was > 100 µM (inactive), the GI50 (MOLT-4) was > 100 µM (inactive) and the GI50 (NCI-H23) was > 100 µM (inactive). The GI50 (M14) was > 100 µM (inactive), the GI50 (M19-MEL) was > 100 µM (inactive) and the GI50 (OVCAR-5) was > 100 µM (inactive). The GI50 (UO-31) was > 100 µM (inactive), the GI50 (OVCAR-4) was > 100 µM (inactive) and the GI50 (KM-20L2) was > 100 µM (inactive). The GI50 (UACC-257) was > 100 µM (inactive), the GI50 (SW-620) was > 100 µM (inactive) and the GI50 (HCC 2998) was 92 µM (inactive). The GI50 (ACHN) was > 100 µM (inactive), the GI50 (EKVX) was > 100 µM (inactive) and the GI50 (SNB-19) was > 100 µM (inactive). For the same molecule, the GI50 (RXF 393) was > 100 µM (inactive), the GI50 (DMS-114) was > 100 µM (inactive) and the GI50 (SN12C) was > 100 µM (inactive). For the same molecule, the GI50 (UACC-62) was > 100 µM (inactive) and the GI50 (SF-295) was > 100 µM (inactive).
